# Source: patent US6423334B1, “Composition and method for enhancing transport across gastrointestinal tract cell layers” (priority 1997, dated 2002)
# Legend:
# [1] = Flux of [3H]-TRH across Caco-2 monolayers; type: in vitro ADME, human; settings: human, Caco-2
# Procedure: (§1) The cell monolayers were incubated as given in Example 4 above.
# (§2) A further 2 hour transepithelial transport study was carried out as above for [^3H]-TRH (0.12 nM) except that excess TRH (cold, 4.4 mM; Bachem, UK) was also administered apically. […] No significant difference between TRH Papp values at low concentrations (0.05-0.1 nM) and high TRH concentrations (4.4 mM) was observed providing evidence of passive TRH absorption across the monolayer.
# (§3) Statistically significant differences existed between Babassu TEER results and those of the other oils (2 mM) at each 30 minute interval except between Babassu oil and Almond oil at the T=30 sampling. No significant differences in TEER was observed between Almond oil, Palm Kernel oil and Maize oil. The average 30% reduction in TEER observed for Almond, Palm Kernel and Maize oils at 2 mM during the 2 hour flux was not evident in the presence of Babassu oil (2 mM).
# [2] = tested on: Caco-2 monolayers; test: Flux of [3H]-TRH across Caco-2 monolayers; type: in vitro ADME, human
# Procedure: as §1, §2, §3
# [3] = tested on: Caco-2 monolayers; test: TEER of Caco-2 monolayers during flux experiments; type: cell-based, human; settings: for overall decrease in resistance (TEER) of control cells / decrease in TEER: 2 hour flux; for overall decrease in resistance (TEER) of control cells: labelled drug alone, no enhancer
# Procedure: Part a: Caco-2 monolayers (passage 20-40; 20-30 days post seeding on filters) were treated apically for 20-30 min with the 8mM and 40 mM Babassu oil in Hanks+25 mM Hepes. The oil was removed and replaced with Hanks containing 100 IU/ml Kraeber low molecular weight heparin. […] Transepithelial electrical resistance (TEER) measurements were taken at regular intervals for 20 min and subsequently every 30 min after the oil was removed with the Evohmeter (WPI) and chopsticks as shown in Table 4. The results are expressed as mean±S.E. (statistical differences examined using the two sided independent t-test).
# as §2, §3
# [4] = tested on: Caco-2 monolayers; settings: human, Caco-2, 2 h, 0.04 nM, pH 7.4
# Procedure: (§4) The cell monolayers were incubated with prewarmed Hanks balanced salt solution (HBSS modified by adding 1 g glucose/I—final concentration 11 mM glucose and 24 mM Hepes, pH 7.4) at 37° C. for 30 minutes, adding 1 ml to apical and 2 ml to the basolateral side. At T=0, apical HBSS was replaced with 1 ml HBSS containing the mannitol transport solution and the plates were placed in a 37° C. incubator on an orbital shaker. Samples were taken from the apical side at T=0 and T=120 min and from the basolateral side every 30 min. The resulting samples were measured by liquid scintillation spectrophotometry using a Wallac 1409.
# (§5) An experiment similar to the above transepithelial transport of mannitol experiment was conducted except that cytochalasin D (1 μg/ml), a potent tight junction opener, was added apically and basolaterally at time zero instead of the Babassu oil.
# (§6) Following the procedures of the 2 hour flux experiments of Example 4 above, [^3H]-mannitol (0.04 nM) was added apically to Caco-2 monolayers in the presence of 0.1 mM, 5.0 mM, and 10 mM Almond Oil, 0.1 mM, 2.0 mM, 2.5 mM, 5.0 mM and 10 mM Palm Kernel oil as well as 0.1 mM, 1 mM and 2 mM Maize oil.
# [5] = in vitro; settings: human
# Procedure: as §4, §5, §6
"Papp A→B at 2 h, 0.12 nM [1] [×10⁻⁶ cm/s]","Papp A→B at 2 h, 0.2 nM [1] [×10⁻⁶ cm/s]",TRH transported across the Caco-2 monolayer ([2]; Caco-2) [%],% Transport per hour [4] [%],"Papp A→B at 2 h, 0.04 nM ([5]; Caco-2, pH 7.4, Papp) [×10⁻⁶ cm/s]","Papp A→B at 2 h, 0.04 nM ([5]; Caco-2, pH 7.4, apparent permeability coefficient (Papp) of mannitol) [×10⁻⁶ cm/s]",SMILES,overall decrease in resistance (TEER) of control cells [3] [%],"reduction in TEER ([3]; [3H]-TRH 0.12 nM in the presence and absence of excess cold TRH (4.4 mM), 2 hours)",apparent permeability coefficient (Papp) of TRH ([2]; in the presence of cytochalasin D 1 μg/ml) [×10⁻⁶ cm/s],decrease in TEER ([3]; Cytochalasin D with [3H]-TRH) [%],decrease in TEER ([3]; Cytochalasin D with [3H]-mannitol) [%],"reduction in TEER ([3]; cytochalasin D 1 μg/ml apically and basolaterally, mannitol flux) [%]","initial reduction in TEER ([3]; cytochalasin D 1 μg/ml, TRH flux, first hour) [%]","additional reduction in TEER ([3]; cytochalasin D 1 μg/ml, TRH flux, remaining hour) [%]"
0.53,0.72 ± 0.025,0.2,–,–,–,"NC(=O)[C@@H]1CCCN1C(=O)[C@H](Cc1cnc[nH]1)NC(=O)[C@@H]1CCC(=O)N1 [TRH, Thyrotropin releasing hormone]",29.2,approximately 20%,–,–,–,–,–,–
–,–,–,–,–,–,C=C1[C@@H](C)[C@H]2[C@H](Cc3ccccc3)NC(=O)[C@]23[C@H](OC(C)=O)/C=C/[C@@](C)(O)C(=O)[C@@H](C)C/C=C/[C@H]3[C@@H]1O [cytochalasin D],–,–,5.7,50,59,60,40,22
–,–,–,0.28,0.79 ± 0.03,0.79,"OC[C@@H](O)[C@@H](O)[C@H](O)[C@H](O)CO [mannitol, mannitol, D -[1-^3H (n)]]",12.8,–,–,–,–,–,–,–
